Paper PMC12439760 (Bioorganic & medicinal chemistry, 2025)
Several values for one entry are separate records, joined by “and”; a condition that tells them apart may be missing. Identical values can stand only once.

Key:
[1] = target: hCB1 receptor (Homo sapiens, UniProt P21554); test: hCB1 Gαq16-coupled calcium mobilization assay in CHO-K1 cells; assay type: cell-based; details: for EC50: hCB1 Ca EC50, CHO cells expressing hCB1 and Gαq16, calcium mobilization
[2] = target: hCB2 receptor (Homo sapiens, UniProt P34972); test: hCB2 Gαq16-coupled calcium mobilization assay in CHO-K1 cells; assay type: cell-based; details: hCB2 Ca EC50, CHO cells expressing hCB2 and Gαq16, calcium mobilization
Sequence of hCB2 receptor (P34972 whole entry): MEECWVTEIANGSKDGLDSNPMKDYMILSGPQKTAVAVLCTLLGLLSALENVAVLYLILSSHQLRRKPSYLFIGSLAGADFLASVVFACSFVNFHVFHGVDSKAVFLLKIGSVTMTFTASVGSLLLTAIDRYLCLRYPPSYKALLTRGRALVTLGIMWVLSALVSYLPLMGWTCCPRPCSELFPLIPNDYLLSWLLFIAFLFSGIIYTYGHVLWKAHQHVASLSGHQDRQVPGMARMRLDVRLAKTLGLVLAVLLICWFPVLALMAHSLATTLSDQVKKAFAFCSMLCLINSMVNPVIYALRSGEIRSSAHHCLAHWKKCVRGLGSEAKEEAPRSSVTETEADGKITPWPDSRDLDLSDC

Sequence of hCB1 receptor (P21554 whole entry): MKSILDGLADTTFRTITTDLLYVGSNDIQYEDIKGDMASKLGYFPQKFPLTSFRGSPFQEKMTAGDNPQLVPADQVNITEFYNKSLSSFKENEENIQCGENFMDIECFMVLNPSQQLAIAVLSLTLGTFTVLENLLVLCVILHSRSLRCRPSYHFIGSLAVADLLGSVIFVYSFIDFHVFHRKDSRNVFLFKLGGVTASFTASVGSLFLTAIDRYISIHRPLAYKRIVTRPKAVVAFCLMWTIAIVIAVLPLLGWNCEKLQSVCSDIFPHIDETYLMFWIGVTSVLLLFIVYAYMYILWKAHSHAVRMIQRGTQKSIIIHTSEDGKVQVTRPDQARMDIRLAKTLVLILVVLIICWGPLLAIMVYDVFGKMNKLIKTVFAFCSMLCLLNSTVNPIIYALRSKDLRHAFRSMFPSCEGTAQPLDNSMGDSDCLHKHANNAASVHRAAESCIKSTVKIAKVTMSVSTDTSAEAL

Q: Which results are given for `CC(C)[C@H](NC(=O)c1nn(Cc2ccc(F)cc2)c2ccccc12)C(=O)O` [Compound 5, (2S)-2-({1-[(4-Fluorophenyl)methyl]-1H-indazol-3-yl}formamido)-3-methylbutanoic Acid]?
A: EC50 [1]: 5.55 ± 0.435 µM; EC50 [2]: 0.516 ± 0.019 µM

Q: For `CNC(=O)[C@@H](NC(=O)c1nn(Cc2ccc(F)cc2)c2ccccc12)C(C)C` [Compound 6, (2S)-2-({1-[(4-Fluorophenyl)methyl]-1H-indazol-3-yl}formamido)-N,3-dimethylbutanamide], which EC50 [1] is on record?
A: 0.012 ± 0.002 µM

Q: What about the EC50 [2] of the same molecule?
A: 0.03 ± 0.001 µM

Q: Which EC50 [1] does the source give for `NC(=O)[C@@H](NC(=O)c1nn(Cc2ccc(F)cc2)c2ccccc12)c1ccccc1` [Compound 7, (2S)-2-({1-[(4-Fluorophenyl)methyl]-1H-indazol-3-yl}formamido)-2-phenylacetamide] here?
A: 0.178 ± 0.055 µM

Q: What about the EC50 [2] of the same molecule?
A: 0.042 ± 0.009 µM

Q: What does the source list for `NC(=O)[C@H](Cc1ccccc1)NC(=O)c1nn(Cc2ccc(F)cc2)c2ccccc12` [Compound 8, (2S)-2-({1-[(4-Fluorophenyl)methyl]-1H-indazol-3-yl}formamido)-3-phenylpropanamide]?
A: EC50 [1]: 0.337 ± 0.033 µM; EC50 [2]: 0.059 ± 0.007 µM

Q: `NC(=O)C1(NC(=O)c2nn(Cc3ccc(F)cc3)c3ccccc23)CCCC1` [Compound 9, N-(1-Carbamoylcyclopentyl)-1-[(4-fluorophenyl)methyl]-1H-indazole-3-carboxamide] was tested. Which EC50 [1] did it give?
A: 1.24 ± 0.017 µM

Q: And the EC50 [2]?
A: 0.063 ± 0.006 µM

Q: Which results are given for `CC(C)(NC(=O)c1nn(Cc2ccc(F)cc2)c2ccccc12)C(N)=O` [Compound 10, 2-({1-[(4-Fluorophenyl)methyl]-1H-indazol-3-yl}formamido)-2-methylpropanamide]?
A: EC50 [1]: > 10 µM; EC50 [2]: 0.477 ± 0.142 µM

Q: How did the EC50 [1] turn out when `CNC(=O)C(C)(C)NC(=O)c1nn(Cc2ccc(F)cc2)c2ccccc12` [Compound 11, 2-({1-[(4-Fluorophenyl)methyl]-1H-indazol-3-yl}formamido)-N,2-dimethylpropanamide] was run?
A: 0.182 ± 0.006 µM

Q: And the EC50 [2]?
A: 0.021 ± 0.003 µM

Q: Which EC50 [1] does the source give for `CC(C)(NC(=O)c1nn(Cc2ccc(F)cc2)c2ccccc12)C(=O)Nc1cccc(C(N)=O)c1` [Compound 12, 3-[2-({1-[(4-Fluorophenyl)methyl]-1H-indazol-3-yl}formamido)-2-methylpropanamido]benzamide] here?
A: 0.36 ± 0.088 µM

Q: What about the EC50 [2] of the same molecule?
A: 0.36 ± 0.048 µM

Q: `CN(CC(N)=O)C(=O)C(C)(C)NC(=O)c1nn(Cc2ccc(F)cc2)c2ccccc12` [Compound 13, N-(Carbamoylmethyl)-2-({1-[(4-fluorophenyl)methyl]-1H-indazol-3-yl}formamido)-N,2-dimethylpropanamide] was tested. Which EC50 [1] did it give?
A: 0.282 ± 0.073 µM

Q: What about the EC50 [2] of the same molecule?
A: 0.074 ± 0.019 µM

Q: What does the source list for `CC(C)(NC(=O)c1nn(Cc2ccc(F)cc2)c2ccccc12)C(=O)N1CCC[C@@H]1C(N)=O` [Compound 15, N-{1-[(2R)-2-Carbamoylpyrrolidin-1-yl]-2-methyl-1-oxopropan-2-yl}-1-[(4-fluorophenyl)methyl]-1H-indazole-3-carboxamide]?
A: EC50 [1]: > 10 µM; EC50 [2]: > 10 µM

Q: What does the source list for `NC(=O)[C@@H]1CCCN1C(=O)C1(NC(=O)c2nn(Cc3ccc(F)cc3)c3ccccc23)CC1` [Compound 16, N-{1-[(2S)-2-Carbamoylpyrrolidine-1-carbonyl]cyclopropyl}-1-[(4-fluorophenyl)methyl]-1H-indazole-3-carboxamide]?
A: EC50 [1]: 0.168 ± 0.013 µM; EC50 [2]: 0.19 ± 0.088 µM

Q: `CC(C)(CN1CCC[C@H]1C(N)=O)NC(=O)c1nn(Cc2ccc(F)cc2)c2ccccc12` [Compound 17, N-{1-[(2S)-2-Carbamoylpyrrolidin-1-yl]-2-methylpropan-2-yl}-1-[(4-fluorophenyl)methyl]-1H-indazole-3-carboxamide] was tested. Which EC50 [1] did it give?
A: 0.032 ± 0.015 µM

Q: And the EC50 [2]?
A: 0.101 ± 0.034 µM

Q: `O=C(NCc1ccc(F)cc1)c1nn(Cc2ccc(F)cc2)c2ccccc12` [Compound 18, N,1-Bis[(4-fluorophenyl)methyl]-1H-indazole-3-carboxamide] was tested. Which EC50 [1] did it give?
A: 0.181 ± 0.02 µM

Q: What about the EC50 [2] of the same molecule?
A: 0.168 ± 0.024 µM

Q: Which EC50 [1] does the source give for `NC(=O)c1ccccc1CNC(=O)c1nn(Cc2ccc(F)cc2)c2ccccc12` [Compound 19, N-[(2-Carbamoylphenyl)methyl]-1-[(4-fluorophenyl)methyl]-1H-indazole-3-carboxamide] here?
A: 0.423 ± 0.19 µM

Q: What about the EC50 [2] of the same molecule?
A: 0.052 ± 0.022 µM

Q: What does the source list for `NC(=O)c1cccc(CNC(=O)c2nn(Cc3ccc(F)cc3)c3ccccc23)c1` [Compound 20, N-[(3-Carbamoylphenyl)methyl]-1-[(4-fluorophenyl)methyl]-1H-indazole-3-carboxamide]?
A: EC50 [1]: 0.038 ± 0.014 µM; hCB1 Ca Emax ([1]; percentage of the maximum CP55,940 signal, CHO cells expressing hCB1 and Gαq16): 104 ± 6%; EC50 [2]: 0.17 µM and 0.172 µM

Q: With `NC(=O)c1ccc(CNC(=O)c2nn(Cc3ccc(F)cc3)c3ccccc23)cc1` [Compound 21, N-[(4-Carbamoylphenyl)methyl]-1-[(4-fluorophenyl)methyl]-1H-indazole-3-carboxamide] as the molecule, how does the EC50 [1] read?
A: > 10 µM

Q: And the EC50 [2]?
A: 1.38 ± 0.149 µM

Q: `C[C@H](NC(=O)c1nn(Cc2ccc(F)cc2)c2ccccc12)c1cccc(C(N)=O)c1` [Compound 22, N-[(1S)-1-(3-Carbamoylphenyl)ethyl]-1-[(4-fluorophenyl)methyl]-1H-indazole-3-carboxamide] was tested. Which EC50 [1] did it give?
A: 0.026 ± 0.002 µM

Q: With `C[C@@H](NC(=O)c1nn(Cc2ccc(F)cc2)c2ccccc12)c1cccc(C(N)=O)c1` [Compound 23, N-[(1R)-1-(3-Carbamoylphenyl)ethyl]-1-[(4-fluorophenyl)methyl]-1H-indazole-3-carboxamide] as the molecule, how does the EC50 [1] read?
A: 0.433 ± 0.084 µM

Q: Which EC50 [2] does the source give for `CC(=O)Nc1cccc(C(C)(C)NC(=O)c2nn(Cc3ccc(F)cc3)c3ccccc23)c1` [Compound 25, N-[2-(3-Acetamidophenyl)propan-2-yl]-1-[(4-fluorophenyl)methyl]-1H-indazole-3-carboxamide] here?
A: 0.068 ± 0.001 µM

Q: Which EC50 [1] does the source give for `CC(C)(NC(=O)c1nn(Cc2ccc(F)cc2)c2ccccc12)c1cccc(NC(N)=O)c1` [Compound 26, N-{2-[3-(Carbamoylamino)phenyl]propan-2-yl}-1-[(4-fluorophenyl)methyl]-1H-indazole-3-carboxamide] here?
A: 0.59 ± 0.152 µM

Q: What does the source list for `NC(=O)c1cccc(C2(NC(=O)c3nn(Cc4ccc(F)cc4)c4ccccc34)CC2)c1` [Compound 27, N-[1-(3-Carbamoylphenyl)cyclopropyl]-1-[(4-fluorophenyl)methyl]-1H-indazole-3-carboxamide]?
A: EC50 [1]: 2.74 ± 0.939 µM; EC50 [2]: 0.096 ± 0.006 µM

Q: Which results are given for `O=C(NCC1CCCCC1)c1nn(Cc2ccc(F)cc2)c2ccccc12` [Compound 28, N-(Cyclohexylmethyl)-1-[(4-fluorophenyl)methyl]-1H-indazole-3-carboxamide]?
A: EC50 [1]: 0.017 ± 0.001 µM; EC50 [2]: 0.028 ± 0.008 µM

Q: Which results are given for `NC(=O)N1CCC[C@@H](CNC(=O)c2nn(Cc3ccc(F)cc3)c3ccccc23)C1` [Compound 29, N-{[(3S)-1-Carbamoylpiperidin-3-yl]methyl}-1-[(4-fluorophenyl)methyl]-1H-indazole-3-carboxamide]?
A: EC50 [1]: 0.95 ± 0.108 µM; EC50 [2]: 0.178 ± 0.045 µM

Q: With `NC(=O)N1CCC[C@H](CNC(=O)c2nn(Cc3ccc(F)cc3)c3ccccc23)C1` [Compound 30, N-{[(3R)-1-Carbamoylpiperidin-3-yl]methyl}-1-[(4-fluorophenyl)methyl]-1H-indazole-3-carboxamide] as the molecule, how does the EC50 [1] read?
A: 0.671 ± 0.161 µM

Q: What does the source list for `NC(=O)CN1CCC[C@@H](CNC(=O)c2nn(Cc3ccc(F)cc3)c3ccccc23)C1` [Compound 32, N-{[(3S)-1-(Carbamoylmethyl)piperidin-3-yl]methyl}-1-[(4-fluorophenyl)methyl]-1H-indazole-3-carboxamide]?
A: EC50 [1]: 0.168 ± 0.023 µM; EC50 [2]: 0.15 ± 0.006 µM

Q: What does the source list for `NC(=O)CN1CCC[C@H](CNC(=O)c2nn(Cc3ccc(F)cc3)c3ccccc23)C1` [Compound 33, N-{[(3R)-1-(Carbamoylmethyl)piperidin-3-yl]methyl}-1-[(4-fluorophenyl)methyl]-1H-indazole-3-carboxamide]?
A: EC50 [1]: 0.239 ± 0.076 µM; EC50 [2]: 0.17 ± 0.024 µM

Q: `CC(C)(NC(=O)c1nn(Cc2ccc(F)cc2)c2ccccc12)C1CCN(C(N)=O)CC1` [Compound 36, N-[2-(1-Carbamoylpiperidin-4-yl)propan-2-yl]-1-[(4-fluorophenyl)methyl]-1H-indazole-3-carboxamide] was tested. Which EC50 [1] did it give?
A: 2.37 ± 0.452 µM

Q: What about the EC50 [2] of the same molecule?
A: 0.132 ± 0.049 µM

Q: With `O=C(NC1CCCCC1)c1nn(Cc2ccc(F)cc2)c2ccccc12` [Compound 37, N-Cyclohexyl-1-[(4-fluorophenyl)methyl]-1H-indazole-3-carboxamide] as the molecule, how does the EC50 [1] read?
A: 0.023 ± 0.002 µM

Q: And the EC50 [2]?
A: 0.014 ± 0.003 µM

Q: How did the EC50 [1] turn out when `NC(=O)N1CCC[C@H](NC(=O)c2nn(Cc3ccc(F)cc3)c3ccccc23)C1` [Compound 38, N-[(3S)-1-Carbamoylpiperidin-3-yl]-1-[(4-fluorophenyl)methyl]-1H-indazole-3-carboxamide] was run?
A: 0.541 ± 0.052 µM

Q: And the EC50 [2]?
A: 0.059 ± 0.001 µM

Q: `NC(=O)N1CCC[C@@H](NC(=O)c2nn(Cc3ccc(F)cc3)c3ccccc23)C1` [Compound 39, N-[(3R)-1-Carbamoylpiperidin-3-yl]-1-[(4-fluorophenyl)methyl]-1H-indazole-3-carboxamide] was tested. Which EC50 [2] did it give?
A: 0.207 ± 0.066 µM

Q: With `NC(=O)CN1CCC[C@H](NC(=O)c2nn(Cc3ccc(F)cc3)c3ccccc23)C1` [Compound 40, N-[(3S)-1-(Carbamoylmethyl)piperidin-3-yl]-1-[(4-fluorophenyl)methyl]-1H-indazole-3-carboxamide] as the molecule, how does the EC50 [1] read?
A: 0.036 ± 0.014 µM

Q: What about the EC50 [2] of the same molecule?
A: 0.022 ± 0.001 µM

Q: `NC(=O)CN1CCC[C@@H](NC(=O)c2nn(Cc3ccc(F)cc3)c3ccccc23)C1` [Compound 41, N-[(3R)-1-(Carbamoylmethyl)piperidin-3-yl]-1-[(4-fluorophenyl)methyl]-1H-indazole-3-carboxamide] was tested. Which EC50 [1] did it give?
A: 0.803 ± 0.073 µM

Q: What about the EC50 [2] of the same molecule?
A: 0.033 ± 0.001 µM

Q: `CC1(NC(=O)c2nn(Cc3ccc(F)cc3)c3ccccc23)CCCN(CC(N)=O)C1` (stereo not shown) [Compound 42, N-[1-(Carbamoylmethyl)-3-methylpiperidin-3-yl]-1-[(4-fluorophenyl)methyl]-1H-indazole-3-carboxamide] was tested. Which EC50 [1] did it give?
A: 0.039 ± 0.001 µM

Q: What about the EC50 [2] of the same molecule?
A: 0.041 ± 0.014 µM

Q: Which results are given for `CC(C)(NC(=O)c1nn(Cc2ccc(Cl)cc2)c2ccccc12)c1cccc(C(N)=O)c1` [Compound 43, N-[2-(3-Carbamoylphenyl)propan-2-yl]-1-[(4-chlorophenyl)methyl]-1H-indazole-3-carboxamide]?
A: EC50 [1]: > 10 µM; EC50 [2]: > 10 µM

Q: `CC(c1ccc(F)cc1)n1nc(C(=O)NC(C)(C)c2cccc(C(N)=O)c2)c2ccccc21` (stereo not shown) [Compound 47, N-[2-(3-Carbamoylphenyl)propan-2-yl]-1-[1-(4-fluorophenyl)ethyl]-1H-indazole-3-carboxamide] was tested. Which EC50 [1] did it give?
A: 0.243 ± 0.037 µM
